This note sets out measurements from patent US20080058383A1 (priority 2003, published 2008).

Assay [1] deals with T1, Recombinant human androgen receptor (hAR) (Homo sapiens, UniProt P10275).
T1 construct: made in house; host or cells: Sf9 insect cells
T1 sequence (P10275 1-920): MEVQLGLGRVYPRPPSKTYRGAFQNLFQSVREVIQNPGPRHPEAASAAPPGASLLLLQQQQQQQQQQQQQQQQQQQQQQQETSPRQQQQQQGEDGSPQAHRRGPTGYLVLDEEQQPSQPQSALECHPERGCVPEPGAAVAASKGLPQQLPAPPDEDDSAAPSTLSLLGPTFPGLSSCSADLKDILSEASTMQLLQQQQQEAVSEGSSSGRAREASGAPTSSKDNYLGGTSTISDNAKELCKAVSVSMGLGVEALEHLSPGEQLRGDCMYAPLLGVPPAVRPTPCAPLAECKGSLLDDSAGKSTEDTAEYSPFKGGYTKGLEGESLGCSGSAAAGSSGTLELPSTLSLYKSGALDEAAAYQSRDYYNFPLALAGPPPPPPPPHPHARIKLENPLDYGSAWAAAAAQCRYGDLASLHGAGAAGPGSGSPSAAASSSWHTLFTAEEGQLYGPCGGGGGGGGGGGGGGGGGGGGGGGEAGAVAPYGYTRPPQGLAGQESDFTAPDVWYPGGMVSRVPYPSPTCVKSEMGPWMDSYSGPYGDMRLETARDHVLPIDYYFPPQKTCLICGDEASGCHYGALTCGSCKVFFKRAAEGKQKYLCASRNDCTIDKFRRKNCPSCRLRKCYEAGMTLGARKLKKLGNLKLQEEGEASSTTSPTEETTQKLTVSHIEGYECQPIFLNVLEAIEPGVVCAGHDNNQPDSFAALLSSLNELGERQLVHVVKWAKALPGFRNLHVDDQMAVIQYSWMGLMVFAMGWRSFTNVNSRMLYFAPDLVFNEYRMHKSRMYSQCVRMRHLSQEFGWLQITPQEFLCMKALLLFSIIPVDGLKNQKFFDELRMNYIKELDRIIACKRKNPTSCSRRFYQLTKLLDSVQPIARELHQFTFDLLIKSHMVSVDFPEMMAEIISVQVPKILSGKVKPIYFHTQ
In words: AR competition binding assay (3H-mibolerone tracer). The procedure:
Recombinant human androgen receptor (hAR) was extracted from Sf9 insect cells with buffer containing 1 mM EDTA, 20 mM K2HPO4, 8.7% glycerol, 20 mM Na2MoO4 and 12 mM MTG at 5*10^7 cells/ml. The cell debris was removed by centrifugation and the supernatant aliquoted and stored at −70° C.
An aliquot of AR extract was thawed on ice prior to use and diluted to approximately 0.2 nM (1 to 30 dilution) in buffer (100 mM KnHmPO4 pH 7.0, 1 mM EDTA, 8.7% glycerol, 20 mM Na2MoO4 and 1 mM DTT). The test ligands were diluted in DMSO as a dilution series of 10 concentrations in duplicate, with 1:5 dilution between each concentration. Tritiated mibolerone (^3H-Mib) was used as tracer compound and diluted to 1.6 nM in 1 mM EDTA, 20 mM Na2MoO4, 8.7% glycerol and 1 mM DTT. To a 96-well polypropylene-plate 110 μl/well of 1.6 nM ^3H-Mib, 10 μl/well test substance and 110 μl/well diluted AR was added. The plates were covered and incubated at +4° C. over night. The plates were harvested on filters to separate bound ligand from unbound ligand with a Tomtec Harvester. A prewet buffer containing 20 mM Kn(PO4) pH 7.6, 1 mM EDTA, v/v 0.5% polyethyleneimine was used to equilibrate the filter before filtering the samples and washing the filters with 20 mM Kn(PO4) pH 7.6, 1 mM EDTA 8 times. The filters were allowed to dry for 1 hour at +65° C. A scintillating wax was melted upon the filter and the radioactivity retained on the filter was measured in a Wallac Microbeta scintillation counter.
The affinity to AR was evaluated by a non-linear four-parameter logisitic model: b=(bmax−bmin)/(1+(IC50/I)̂S)+bmin, where bmax=total concentration of binding sites, bmin=non-specific binding, I=added concentration of binding inhibitor, IC50=concentration of binding inhibitor at half-maximal binding and S=slope factor. Table: Antagonist and partial antagonist and binding activity of androgen receptor modulator compounds.

For assay [2], the target named is T2, androgen receptor (CMV-hAR) in CV-1 cells (Homo sapiens, UniProt P10275).
T2 construct: expressed in transfected cells
T2 sequence (P10275 1-920): T1 sequence (P10275 1-920)
In words: AR transactivation assay, antagonist mode (ARAF cells, ALP reporter, presence of 0.1 nM Mibolerone). The class given is cell-based. The note with it: for ARAF % ANTAGONIST: decrease in ALP activity in the presence of 0.1 nM Mibolerone. The procedure:
(§1) The agonist and antagonist properties of compounds were determined using a cell-based system expressing stably integrated androgen receptor and an androgen responsive reporter gene. CV-1 cells (kidney fibroblasts) stably expressing CMV-hAR and alkaline phosphatase (ALP) driven by an MMTV promoter containing an androgen response element were cultured in Dulbecco's Modified Eagle Medium (DMEM), low glucose supplemented with 10% fetal bovin serum, 1% L-glutamine, and 0.7% Hygromycine B. The stably integrated cells (ARAF) were trypsinized and resuspended in Opti-MEM 1 supplemented with 2% fetal bovine serum, 1% L-Glutamine, 50 μg/ml Gentamicine and 1% Pen/Strep. The cells were counted in a Birch chamber and diluted to a concentration of 100 000 cells/ml. The cells were then seeded out in 384 plates, 5000 cells/well in 50 μl seeding media and incubated overnight in 37 C, 5% CO2.
(§2) The next day, the seeding medium was removed from the cells and 20 μl induction media (Opti-MEM 1 supplemented with 1% L-Glutamine, 50 μg/ml Gentamicine and 1% Pen/Strep)+/−0.1 nM Mibolerone was added to the wells. 10 μl of test compound diluted in induction media was then added to the wells. The cells were incubated 48 hr in 37 C, 5% CO2.
(§3) After 48 hr 5 μl of cell medium was added to white 384 plates with 100 μl of ALP substrate buffer. The plates were incubated in 37 C for 20 minutes followed by incubation at room temperature for 10 minutes before each well was read in a μBETA machine. Agonist activity was calculated from the alkaline phosphatase activity induced in the absence of Mibolerone and compared to standard activation curve generated by Mibolerone alone. Antagonist activity was calculated from the decrease in ALP activity in the presence of 0.1 nM Mibolerone. EC50 and IC50 values were calculated by using a non-linear four-parameter fit as described above.

Assay [3] has as its target T2, androgen receptor (CMV-hAR) in CV-1 cells. In words: AR transactivation assay, agonist mode (ARAF cells, ALP reporter, absence of Mibolerone). The class given is cell-based. The settings on record: for ARAF % AGONIST: ALP activity in absence of Mibolerone compared to standard activation curve of Mibolerone alone. The procedure:
as §1, §2, §3

[4] abbreviates: competition with 3H-Mib, hAR extract from Sf9 cells, +4° C. over night, read-out: AR_LT IC50.
The mark [5] stands for this setting: CV-1 cells stably expressing hAR and MMTV-ALP, presence of 0.1 nM Mibolerone, 48 hr, read-out: ARAF IC50.
[6] abbreviates: CV-1 cells stably expressing hAR and MMTV-ALP, absence of Mibolerone, 48 hr, read-out: ARAF EC50.

One may read the pIC50 as −log10 of the IC50, conventionally taken in molar units. For orientation: pEC50 means −log10 of the EC50, conventionally taken in molar units.

pEC50, pIC50: −log10 of the molar value. Like-named read-outs stand apart in the source and are kept apart here.

As to `N#Cc1ccc(NC2(CO)CCCC2)cc1C(F)(F)F` [Example-19, 4-(1-Hydroxymethyl-cyclopentylamino)-2-trifluoromethyl-benzonitrile], the pIC50 in assay [1] (setting [4]) was 6.88. For the same compound, in assay [2], the pIC50 was 7.65 and the “ARAF % ANTAGONIST” value is reported as 95.6%.
With `Cc1cc(NC(C)(C)CO)ccc1[N+](=O)[O-]` [Example-5], the values for the negative logarithm of the IC50 (pIC50) in assay [1] (setting [4]) and in assay [2] (setting [5]) were 7.42 and 8.14, respectively. Moreover, in assay [2], the “ARAF % ANTAGONIST” value stood at 61%. In addition, in assay [3], the “ARAF % AGONIST” value stood at 29.3%. In assay [3] (setting [6]), the negative-log EC50 (pEC50) is 7.09.
For the compound `CC(C)[C@@H](CO)Nc1ccc([N+](=O)[O-])c(C(F)(F)F)c1` [Example-30], the negative-log IC50 (pIC50) in assay [1] (setting [4]) is 6.95. In assay [2], the pIC50 was 7.17 and the “ARAF % ANTAGONIST” value came to 88.7%. In assay [3], the pEC50 was 5.97 and the “ARAF % AGONIST” value is reported as 7.3%.
As to `CCC[C@@H](CO)Nc1ccc([N+](=O)[O-])cc1Br` [Example-106, (S)-2-(2-Bromo-4-nitro-phenylamino)-pentan-1-ol], the pIC50 in assay [1] was 6.77; in assay [2] (setting [5]), 6.62. The “ARAF % ANTAGONIST” value in assay [2] came to 88.2%.
Take `Cc1nc(N[C@H](CO)CSCc2ccccc2)ccc1[N+](=O)[O-]` [Example-65]: the negative-log IC50 (pIC50) in assay [1] (setting [4]) is 8.21; in assay [2] (setting [5]) it was 7.11. In addition, the “ARAF % ANTAGONIST” value in assay [2] came out at 89.2%. For the same compound, the “ARAF % AGONIST” value in assay [3] is 7%. Moreover, the pEC50 in assay [3] (setting [6]) is 5.73.
Take `CCC[C@@H](CO)Nc1ccc([N+](=O)O)cc1` [Example-103, (S)-2-(4-Nitro-phenylamino)-pentan-1-ol]: the negative logarithm of the IC50 (pIC50) in assay [1] (setting [4]) is 7.01; in assay [2] (setting [5]) it was 6.87. For the same compound, the “ARAF % ANTAGONIST” value in assay [2] is listed as 92.9%.
Take `CCCC[C@@H](CO)Nc1ccc([N+](=O)[O-])c(C)n1` [Example-60]: the pIC50 in assay [1] (setting [4]) was 7.17; in assay [2] (setting [5]) it was 7.56. For the same compound, the “ARAF % ANTAGONIST” value in assay [2] amounted to 79.3%. For the same compound, in assay [3], the “ARAF % AGONIST” value is reported as 9.3%. Besides, the pEC50 in assay [3] (setting [6]) was 6.47.
As to `Cc1cc(NCCNc2ccc([N+](=O)[O-])cn2)ccc1[N+](=O)[O-]` [Example-86], the pIC50 in assay [1] (setting [4]) was 6.35; in assay [2] (setting [5]), 6.46. For the same compound, the “ARAF % ANTAGONIST” value in assay [2] is given as 100%.
As for `CCCC(CO)Nc1ccc([N+](=O)[O-])c(C)c1` (centres unmarked) [Example-78], the negative logarithm of the IC50 (pIC50) in assay [1] (setting [4]) is 7.26; in assay [2] (setting [5]), 7.59. Further, in assay [2], the “ARAF % ANTAGONIST” value amounted to 65.4%. The “ARAF % AGONIST” value in assay [3] was determined as 25%. Further, the negative-log EC50 (pEC50) in assay [3] (setting [6]) was 6.55.
Turning to `CCCC(CO)Nc1ccc([N+](=O)[O-])c(C(F)(F)F)c1` (centres unmarked) [Example-42], the pIC50 in assay [1] and in assay [2] (setting [5]) was 6.31 in each case. Moreover, in assay [2], the “ARAF % ANTAGONIST” value was determined as 92%.
As for `Cc1nc(NC(C)(C)CO)ccc1[N+](=O)[O-]` [Example-8, 2-Methyl-2-(6-methyl-5-nitro-pyridin-2-ylamino)-propan-1-ol], the negative logarithm of the IC50 (pIC50) in assay [1] (setting [4]) was 6.62; in assay [2] (setting [5]) it was 7.65. The “ARAF % ANTAGONIST” value in assay [2] is 82.5%. In addition, the “ARAF % AGONIST” value in assay [3] is listed as 10.6%. In addition, in assay [3] (setting [6]), the pEC50 is 6.43.
Regarding `CC(C)(CO)Nc1ccc([N+](=O)[O-])c(C(F)(F)F)c1` [Example-1, 2-Methyl-2-(4-nitro-3-trifluoromethyl-phenylamino)-propan-1-ol], the pIC50 in assay [1] (setting [4]) was 7.64. Further, in assay [2], the pIC50 was 8.68 and the “ARAF % ANTAGONIST” value is 33.1%. Also, in assay [3], the pEC50 was 7.57 and the “ARAF % AGONIST” value was determined as 51.7%.
As for `O=[N+]([O-])c1ccc(N[C@H](CO)CSCc2ccccc2)cc1C(F)(F)F` [Example-41], the negative-log IC50 (pIC50) was 7.19 in assay [1] (setting [4]) and 6.31 in assay [2] (setting [5]). For the same compound, the “ARAF % ANTAGONIST” value in assay [2] was 71.7%.
With `CC[C@H](C)[C@@H](CO)Nc1ccc([N+](=O)[O-])c(C)n1` [Example-61], the results for the negative logarithm of the IC50 (pIC50) in assay [1] (setting [4]) and in assay [2] were 7.05 and 7.17, respectively. Also, the “ARAF % ANTAGONIST” value in assay [2] is reported as 87.4%.
